Assay results as given in patent publication US12180187B2, “1-phenyl-5-azinylpyrazolyl-3-oxyalkyl acids and their use for controlling unwanted plant growth” (BAYER AKTIENGESELLSCHAFT, priority 2019, dated 2024).

Columns and labels:
[1] = tested on: LOLRI; test: Pre-emergence action at 320 g/ha against LOLRI; type: in vivo, Lolium rigidum; settings: visual scoring after about 3 weeks vs untreated controls
Summary of the method: (§1)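 Sow seeds, cover with soil, spray soil surface (WP/EC, 0.5% additive, 600 l/ha water), hold in greenhouse ~3 wk, then rate % activity visually against untreated controls.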

[2] = tested on: ECHCG; test: Pre-emergence action against ECHCG, 1280 g/ha; type: in vivo, Echinochloa crus-galli; settings: visual scoring after about 3 weeks vs untreated controls, 100% = plants have died, 0% = like control plants
Summary of the method: (§2)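 Sandy loam pots, seeds covered with soil; aqueous WP/EC spray on covering soil, 0.5% additive, 600 L/ha. Greenhouse growth, good conditions. Readout: visual % activity at ~3 weeks (0% = like control, 100% = dead).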

[3] = tested on: ABUTH; test: Pre-emergence action against ABUTH, 1280 g/ha; type: in vivo, Abutilon theophrasti; settings: scored visually after about 3 weeks vs untreated controls (100% = plants have died)
Summary of the method: as §2

[4] = tested on: POLCO; test: Pre-emergence action at 320 g/ha against POLCO; type: in vivo, Fallopia convolvulus (Polygonum convolvulus); settings: visual scoring after about 3 weeks vs untreated controls
Summary of the method: as §1

[5] = tested on: ALOMY; test: Pre-emergence action at 320 g/ha against ALOMY; type: in vivo, Alopecurus myosuroides; settings: scored visually after about 3 weeks vs untreated controls (100% = plants have died)
Summary of the method: as §1

[6] = tested on: SETVI; test: Post-emergence action against SETVI, 1.28 kg/ha; type: in vivo, Setaria viridis; settings: dosage 1280 g/ha, visual rating about 3 weeks after treatment vs untreated controls
Summary of the method: (§3)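 Foliar application at the one-leaf stage: compound as WP or EC in water with 0.5% additive, sprayed at 600 L/ha. Plants are kept about 3 weeks in the greenhouse, then % herbicidal action is estimated visually (100% = death).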

[7] = tested on: DIGSA; test: Pre-emergence action against DIGSA, 1280 g/ha; type: in vivo, Digitaria sanguinalis; settings: visual scoring after about 3 weeks vs untreated controls, 100% = plants have died, 0% = like control plants
Summary of the method: as §2

[8] = tested on: VERPE; test: Pre-emergence action against VERPE, 1280 g/ha; type: in vivo, Veronica persica; settings: scored visually after about 3 weeks vs untreated controls (100% = plants have died)
Summary of the method: as §2

[9] = tested on: LOLRI; test: Post-emergence action against LOLRI, 1.28 kg/ha; type: in vivo, Lolium rigidum; settings: dosage 1280 g/ha, visual rating about 3 weeks after treatment vs untreated controls
Summary of the method: as §3

[10] = tested on: VIOTR; test: Pre-emergence action at 320 g/ha against VIOTR; type: in vivo, Viola tricolor; settings: dosage 320 g/ha
Summary of the method: as §1

[11] = tested on: ABUTH; test: Post-emergence action against ABUTH, 1.28 kg/ha; type: in vivo, Abutilon theophrasti; settings: dosage 1280 g/ha, visual rating about 3 weeks after treatment vs untreated controls (100% = plants died)
Summary of the method: as §3

[12] = tested on: DIGSA; test: Post-emergence action against DIGSA, 1.28 kg/ha; type: in vivo, Digitaria sanguinalis; settings: dosage 1280 g/ha, visual rating about 3 weeks after treatment vs untreated controls
Summary of the method: as §3

[13] = tested on: ECHGC; test: Pre-emergence action at 320 g/ha against ECHGC; type: in vivo, Echinochloa crus-galli; settings: visual scoring after about 3 weeks vs untreated controls
Summary of the method: as §1

[14] = tested on: KCHSC; test: Pre-emergence action against KCHSC, 1280 g/ha; type: in vivo, Bassia scoparia; settings: scored visually after about 3 weeks vs untreated controls (100% = plants have died)
Summary of the method: as §2

[15] = tested on: SETVI; test: Pre-emergence action against SETVI, 1280 g/ha; type: in vivo, Setaria viridis; settings: visual scoring after about 3 weeks vs untreated controls, 100% = plants have died, 0% = like control plants
Summary of the method: as §2

[16] = tested on: MATIN; test: Pre-emergence action at 320 g/ha against MATIN; type: in vivo, Tripleurospermum inodorum (Matricaria inodora); settings: visual scoring after about 3 weeks vs untreated controls
Summary of the method: as §1

[17] = tested on: LOLRI; test: Pre-emergence action against LOLRI, 1280 g/ha; type: in vivo, Lolium rigidum; settings: visual scoring after about 3 weeks vs untreated controls, 100% = plants have died, 0% = like control plants
Summary of the method: as §2

[18] = tested on: MATIN; test: Post-emergence action against MATIN, 1.28 kg/ha; type: in vivo, Tripleurospermum inodorum (Matricaria inodora); settings: dosage 1280 g/ha, visual rating about 3 weeks after treatment vs untreated controls (100% = plants died)
Summary of the method: as §3

[19] = tested on: STEME; test: Post-emergence action against STEME, 1.28 kg/ha; type: in vivo, Stellaria media; settings: dosage 1280 g/ha, visual rating about 3 weeks after treatment vs untreated controls (100% = plants died)
Summary of the method: as §3

[20] = tested on: DIGSA; test: Pre-emergence action at 320 g/ha against DIGSA; type: in vivo, Digitaria sanguinalis; settings: visual scoring after about 3 weeks vs untreated controls
Summary of the method: as §1

[21] = tested on: MATIN; test: Pre-emergence action against MATIN, 1280 g/ha; type: in vivo, Tripleurospermum inodorum (Matricaria inodora); settings: scored visually after about 3 weeks vs untreated controls (100% = plants have died)
Summary of the method: as §2

[22] = tested on: POAAN; test: Pre-emergence action against POAAN, 1280 g/ha; type: in vivo, Poa annua; settings: visual scoring after about 3 weeks vs untreated controls, 100% = plants have died, 0% = like control plants
Summary of the method: as §2

[23] = tested on: SETVI; test: Pre-emergence action at 320 g/ha against SETVI; type: in vivo, Setaria viridis; settings: visual scoring after about 3 weeks vs untreated controls
Summary of the method: as §1

[24] = tested on: VERPE; test: Pre-emergence action at 320 g/ha against VERPE; type: in vivo, Veronica persica; settings: visual scoring after about 3 weeks vs untreated controls
Summary of the method: as §1

[25] = tested on: KCHSC; test: Post-emergence action against KCHSC, 1.28 kg/ha; type: in vivo, Bassia scoparia; settings: dosage 1280 g/ha, visual rating about 3 weeks after treatment vs untreated controls (100% = plants died)
Summary of the method: as §3

[26] = tested on: AMARE; test: Pre-emergence action against AMARE, 1280 g/ha; type: in vivo, Amaranthus retroflexus; settings: scored visually after about 3 weeks vs untreated controls (100% = plants have died)
Summary of the method: as §2

[27] = tested on: VERPE; test: Post-emergence action against VERPE, 1.28 kg/ha; type: in vivo, Veronica persica; settings: dosage 1280 g/ha, visual rating about 3 weeks after treatment vs untreated controls (100% = plants died)
Summary of the method: as §3

[28] = tested on: AMARE; test: Post-emergence action against AMARE, 1.28 kg/ha; type: in vivo, Amaranthus retroflexus; settings: dosage 1280 g/ha, visual rating about 3 weeks after treatment vs untreated controls (100% = plants died)
Summary of the method: as §3

[29] = tested on: POAAN; test: Post-emergence action against POAAN, 1.28 kg/ha; type: in vivo, Poa annua; settings: dosage 1280 g/ha, visual rating about 3 weeks after treatment vs untreated controls
Summary of the method: as §3

[30] = tested on: ALOMY; test: Pre-emergence action against ALOMY, 1280 g/ha; type: in vivo, Alopecurus myosuroides; settings: visual scoring after about 3 weeks vs untreated controls, 100% = plants have died, 0% = like control plants
Summary of the method: as §2

[31] = tested on: ALOMY; test: Post-emergence action against ALOMY, 1.28 kg/ha; type: in vivo, Alopecurus myosuroides; settings: dosage 1280 g/ha, visual rating about 3 weeks after treatment vs untreated controls
Summary of the method: as §3

[32] = tested on: ECHCG; test: Post-emergence action against ECHCG, 1.28 kg/ha; type: in vivo, Echinochloa crus-galli; settings: dosage 1280 g/ha, visual rating about 3 weeks after treatment vs untreated controls
Summary of the method: as §3

[33] = tested on: AMARE; test: Pre-emergence action at 320 g/ha against AMARE; type: in vivo, Amaranthus retroflexus; settings: visual scoring after about 3 weeks vs untreated controls
Summary of the method: as §1

[34] = tested on: STEME; test: Pre-emergence action against STEME, 1280 g/ha; type: in vivo, Stellaria media; settings: scored visually after about 3 weeks vs untreated controls (100% = plants have died)
Summary of the method: as §2

[35] = tested on: AVEFA; test: Pre-emergence action at 320 g/ha against AVEFA; type: in vivo; settings: visual scoring after about 3 weeks vs untreated controls
Summary of the method: as §1

[36] = tested on: DIGSA; test: Post-emergence action at 320 g/ha against DIGSA; type: in vivo, Digitaria sanguinalis; settings: dosage 320 g/ha, visual rating about 3 weeks after treatment vs untreated controls (100% = plants died)
Excerpt: (§4) Accordingly, the compounds of the invention have good herbicidal action against a broad spectrum of weed grasses and broad-leaved weeds and are therefore suitable for controlling unwanted vegetation by the post-emergence method. • b) Seeds of monocotyledonous and dicotyledonous weeds and crop plants are placed in sandy loam in plastic or organic planting pots, covered with soil and cultivated in a greenhouse under controlled growth conditions. 2 to 3 weeks after sowing, the test plants are treated at the one-leaf stage. The compounds of the invention, formulated in the form of wettable powders (WP) or as emulsion concentrates (EC), are then sprayed onto the green parts of the plants as aqueous suspension or emulsion with addition of 0.5% additive at a water application rate of 600 l/ha (converted). After the test plants have been kept in the greenhouse under optimum growth conditions for about 3 weeks, the activity of the preparations is rated visually in comparison to untreated controls. For example, 100% activity=the plants have died, 0% activity=like control plants. Tables 39 to 49 below show the effects of selected compounds of the general formula (I) according to Tables 1 and 2 on various harmful plants and at an application rate corresponding to 320 g/ha, which were obtained by the experimental procedure mentioned above.

[37] = tested on: SETVI; test: Post-emergence action at 320 g/ha against SETVI; type: in vivo, Setaria viridis; settings: visual rating about 3 weeks after treatment vs untreated controls
Excerpt: as §4

[38] = tested on: ALOMY; test: Post-emergence action against ALOMY, 320 g/ha; type: in vivo, Alopecurus myosuroides; settings: dosage 320 g/ha, visual rating about 3 weeks after treatment vs untreated controls (100% = plants died)
Excerpt: as §4

Compound | Pre-emergence action against LOLRI in % [1] | Pre-emergence action against ECHCG [2] | Pre-emergence action against POLCO in % [4] | Pre-emergence action at 320 g/ha against ALOMY in % [5] | Pre-emergence action against DIGSA [7] | Pre-emergence action against VERPE [8] | Post-emergence action against LOLRI [9] | Pre-emergence action against VIOTR in % [10] | Post-emergence action against DIGSA [12] | Pre-emergence action against ECHGC in % [13] | Pre-emergence action against KCHSC [14] | Pre-emergence action against SETVI [15] | Pre-emergence action against MATIN in % [16] | Pre-emergence action against LOLRI [17] | Post-emergence action against MATIN [18] | Post-emergence action against STEME [19] | Pre-emergence action against DIGSA in % [20] | Pre-emergence action against MATIN [21] | Pre-emergence action against POAAN [22] | Pre-emergence action against SETVI in % [23] | further results
O=C(COc1nn(-c2ccccc2F)c(-c2ccc(F)nc2)c1Br)OCCCl [VII-108] | 100% | 100% | 100% | 100% | 100% | 100% | 100% | 100% | 100% | 100% | 90% | 100% | 100% | 100% | 100% | 100% | 100% | 100% | 100% | 100% | Pre-emergence action against ABUTH [3]: 90%; Post-emergence action against SETVI [6]: 90%; Post-emergence action against ABUTH [11]: 90%; Pre-emergence action against VERPE in % [24]: 100%; Post-emergence action against KCHSC [25]: 90%; Pre-emergence action against AMARE [26]: 100%; Post-emergence action against VERPE [27]: 100%; Post-emergence action against AMARE [28]: 100%; Post-emergence action against POAAN [29]: 100%; Pre-emergence action against ALOMY [30]: 100%; Post-emergence action against ALOMY [31]: 100%; Post-emergence action against ECHCG [32]: 100%; Pre-emergence action against AMARE in % [33]: 100%; Pre-emergence action against STEME [34]: 100%; Pre-emergence action against AVEFA in % [35]: 80%
CC(Oc1nn(-c2ccccc2F)c(-c2ccc(F)nc2)c1I)C(=O)O (stereo not shown) [VII-118] | 100% | 100% | 100% | 100% | 100% | 100% | 100% | 100% | 100% | 90% | 100% | 100% | 90% | 100% | 90% | 100% | 100% | 100% | 100% | 90% | Post-emergence action at 320 g/ha against DIGSA in % [36]: 90%; Post-emergence action against SETVI in % [37]: 80%; Pre-emergence action against VERPE in % [24]: 90%; Post-emergence action against KCHSC [25]: 90%; Pre-emergence action against AMARE [26]: 100%; Post-emergence action against ALOMY [38]: 90%; Post-emergence action against POAAN [29]: 100%; Pre-emergence action against ALOMY [30]: 100%; Post-emergence action against ECHCG [32]: 100%; Pre-emergence action against AMARE in % [33]: 100%; Pre-emergence action against STEME [34]: 100%; Pre-emergence action against AVEFA in % [35]: 100%
